Columns and labels:
Format in all cases: cell-based
[1] = tested on: cAMP; assay: Dual-emission ratio (FRET) imaging of Epac-based cAMP reporters (ICUE1 and targeted fusions) in HEK-293 cells; conditions: HEK293 cells expressing ICUE1; 10 μM ISO, 50 μM FSK, 10 μM PGE1, 300 μM 8-pCPT-2′-O-Me-cAMP; average ± S.E.M
Experimental: Cell Culture. […] Cells were then transfected with FuGENE-6 transfection reagent (Roche) or calcium phosphate and allowed to grow for 12-24 hours before imaging.
Imaging. Cells were washed twice with Hanks' balanced salt solution buffer after 12- to 24-h incubation at 37° C. culture medium. Cells were maintained in buffer in the dark at room temperature with addition of isoproterenol (Aldrich), forskolin (Calbiochem), Prostaglandin E1 (PGE1) (Sigma), and 8-(4-chloro-phenylthio)-2′-O-methyl adenosine 3′,5′-monophosphate (8-pCPT-2′-O-Me-cAMP) (Axxora Biolog) as indicated. Cells were also treated with P-(4,5-dimethoxy-2-nitrobenzyl) adenosine 3′,5′-monophosphate (DMNB-cAMP) (Molecular Probe).
Cells were imaged on a Zeiss Axiovert 200M microscope with a cooled charge-coupled device camera MicroMAX BFT512 (Roper Scientific) controlled by METAFLUOR 6.2 software (Universal Imaging). Dual-emission ratio imaging used a 420DF20 excitation filter, a 450DRLP dichroic mirror and two emission filters (475DF40 for ECFP, 535DF25 for citrine) alternated by a filter changer Lambda 10-2 (Sutter Instruments). Exposure time was 100-500 ms and images were taken every 8-30 s. Fluorescent images were background-corrected by subtracting autofluorescence intensities of untransfected cells (or background with no cells) from the emission intensities of fluorescent cells expressing reporters. The ratios of cyan to yellow emissions were then calculated at different time points and normalized by dividing all ratios by the emission ratio just prior to stimulation therefore setting the basal emission ratio to 1.

[2] = tested on: cAMP; assay: High throughput 96-well plate assay using ICUE2 stable HEK293 cells; conditions: 1 μM Iso, 50 μM Fsk, 10 μM H89, 100 μM IBMX
Experimental: HEK293 cells which stably express ICUE2 (“ICUE2 stable HEK293 cells”) were grown to confluency in 10 cm dishes in DMEM, 10% FBS, 1% penicillin/streptomycin, and 250 μg/ml G418. HEK-293 cells were transfected with cDNA encoding ICUE2 using calcium phosphate at 40% confluency and allowed to grow for 40 hours. Cells were removed from the dish using 0.05% trypsin, spun down, and replaced with fresh media. ICUE2 stable HEK293 cells were counted on a hemocytometer using trypan blue stain. One hundred fifty thousand (150,000) cells were plated per well on a 96-well clear bottom assay plate in a total of 0.2 ml of media per […] and allowed to double once. Media was removed, cells were washed with Hanks buffered salt solution (HBSS) and then covered with 0.05 ml of HBSS per well. In a separate sterile plate, appropriate drugs were added to each well containing HBSS for a total volume of 0.05 ml. […] A baseline was established in three cycles, each consisting of a full plate reading of yellow intensity, followed by a reading of cyan intensity. Cells were then treated with isoproterenol (ISO; […] Readings were taken in six or twenty additional cycles. […] Baseline FRET ratios were calculated as the average ratio of yellow/cyan for each well before the addition of drug. FRET change was calculated as the percent increase of FRET ratio over baseline for each well during a given cycle. The FRET changes of all wells having undergone the same drug treatment were then averaged within each cycle, and that cycle was correlated with time.

[3] = tested on: cAMP; assay: 96-well live cell plate reading of HEK293 cells expressing ICUE3; conditions: HEK293 cells expressing ICUE3, 1 μM ISO, 50 μM FSK
Experimental: Plate reading used a 420DF20 excitation filter and two emission filters (470DF40 for cyan and 535DF25 for yellow). A baseline was established in three cycles, each consisting of a full plate reading of yellow intensity, followed by a reading of cyan intensity. Cells were then treated with isoproterenol (ISO; Aldrich), forskolin (Calbiochem), H89, propranolol, and 3-isobutyl-1-methylxanthine (IBMX) as indicated. Readings were taken in six or twenty additional cycles. Each cycle lasted 60 to 145 sec. Baseline FRET ratios were calculated as the average ratio of yellow/cyan for each well before the addition of drug. FRET change was calculated as the percent increase of FRET ratio over baseline for each well during a given cycle. The FRET changes of all wells having undergone the same drug treatment were then averaged within each cycle, and that cycle was correlated with time.
Live cell plate reading. HEK293 cells were transfected with cDNA encoding ICUE reporters using calcium phosphate at 40% confluency and allowed to grow for 40 hours. Cells were then trypsinized and plated in a Costar 3603 96-well assay plate (Coming) at a density of 150,000 cells per well. After incubation for another 24 hours, cells were washed once with HBSS and left in 150 μl HBSS at 20-25° C. Fluorescence reading was taken on a FLUOstar OPTIMA fluorescence microplate reader (BMG Labtechnologies Inc.) using a 420DF20 excitation filter and two emission filters (470DF40 for cyan and […] for yellow). A baseline was established in three cycles, each consisting of a full plate reading of yellow intensity, followed by a reading of cyan intensity. Each cycle lasted between 64 and 145 seconds. Readings were taken in additional cycles. FRET change was calculated as the percent increase of emission ratios (cyan-to-yellow) over baseline for each well during a given cycle. To assess the efficacy of the assay, several statistical parameters were calculated, including Z factor, coefficient of variation, and signal-to-noise ratio (Zhang et al., J. Biomol. Screen. 4, 67-73, 1999).

C=C[C@@]1(C)CC(=O)[C@]2(O)[C@@]3(C)[C@@H](O)CCC(C)(C)[C@@H]3[C@H](O)[C@H](OC(C)=O)[C@@]2(C)O1 [forskolin]
increase in the ratio of cyan to yellow emissions (FRET response) [1]: 19.6%±1.0 | Average percent FRET response ± standard deviation, cycle 1 ([2]; cycle 1 (1 cycle = 60 seconds)): 0.36% ± 7.51% | Average percent FRET response ± standard deviation, cycle 2 ([2]; cycle 2 (1 cycle = 60 seconds)): 2.67% ± 4.53% | Average percent FRET response ± standard deviation, cycle 3 ([2]; cycle 3 (1 cycle = 60 seconds)): 8.71% ± 6.66% | Average percent FRET response ± standard deviation, cycle 4 ([2]; cycle 4 (1 cycle = 60 seconds)): 15.29% ± 3.37% | Average percent FRET response ± standard deviation, cycle 5 ([2]; cycle 5 (1 cycle = 60 seconds)): 15.23% ± 6.55% | Average percent FRET response ± standard deviation, cycle 6 ([2]; cycle 6 (1 cycle = 60 seconds)): 18.73% ± 3.97% | Average percent FRET response ± standard deviation, cycle 7 ([2]; cycle 7 (1 cycle = 60 seconds)): 20.79% ± 4.6% | Average percent FRET response ± standard deviation, cycle 8 ([2]; cycle 8 (1 cycle = 60 seconds)): 22.82% ± 4.58% | Average percent FRET response ± standard deviation, cycle 9 ([2]; cycle 9 (1 cycle = 60 seconds)): 24.98% ± 3.69% | Average percent FRET response ± standard deviation, cycle 10 ([2]; cycle 10 (1 cycle = 60 seconds)): 23.4% ± 4.53% | Average percent FRET response ± standard deviation, cycle 11 ([2]; cycle 11 (1 cycle = 60 seconds)): 24.46% ± 3.51% | Average percent FRET response ± standard deviation, cycle 12 ([2]; cycle 12 (1 cycle = 60 seconds)): 25.44% ± 2.14% | Average percent FRET response ± standard deviation, cycle 13 ([2]; cycle 13 (1 cycle = 60 seconds)): 24.97% ± 3.91% | Average percent FRET response ± standard deviation, cycle 14 ([2]; cycle 14 (1 cycle = 60 seconds)): 25.6% ± 4.31% | Average percent FRET response ± standard deviation, cycle 15 ([2]; cycle 15 (1 cycle = 60 seconds)): 27.0% ± 1.87% | Average percent FRET response ± standard deviation, cycle 16 ([2]; cycle 16 (1 cycle = 60 seconds)): 25.84% ± 3.57% | Average percent FRET response ± standard deviation, cycle 17 ([2]; cycle 17 (1 cycle = 60 seconds)): 26.32% ± 1.66% | Average percent FRET response ± standard deviation, cycle 18 ([2]; cycle 18 (1 cycle = 60 seconds)): 25.94% ± 3.05% | Average percent FRET response ± standard deviation, cycle 19 ([2]; cycle 19 (1 cycle = 60 seconds)): 25.98% ± 2.13% | Average percent FRET response ± standard deviation, cycle 20 ([2]; cycle 20 (1 cycle = 60 seconds)): 25.51% ± 1.67% | Average percent FRET response ± standard deviation, 0 sec. ([3]; 0 sec., 10 μM PRO, 100 μM IBMX, 10 μM H89): 9.05% ± 3.18% | Average percent FRET response ± standard deviation, 145 sec. ([3]; 145 sec., 10 μM PRO, 100 μM IBMX, 10 μM H89): 13.0% ± 3.17% | Average percent FRET response ± standard deviation, 290 sec. ([3]; 290 sec., 10 μM PRO, 100 μM IBMX, 10 μM H89): 14.8% ± 3.35% | Average percent FRET response ± standard deviation, 435 sec. ([3]; 435 sec., 10 μM PRO, 100 μM IBMX, 10 μM H89): 16.7% ± 3.33% | Average percent FRET response ± standard deviation, 580 sec. ([3]; 580 sec., 10 μM PRO, 100 μM IBMX, 10 μM H89): 16.8% ± 3.27% | Average percent FRET response ± standard deviation, 725 sec. ([3]; 725 sec., 10 μM PRO, 100 μM IBMX, 10 μM H89): 17.9% ± 3.63% | maximal response / emission ratio change ([3]; n=7): 17.9%±3.6%

Source: US8236523B2, “Camp reporters and high throughput assays” (The Johns Hopkins University, priority 2004, dated 2012)
